# Reference: patent publication US6372737B1 (priority 1996, dated 2002)
# What was measured:
# Type in all cases: in vivo
# Sphaerotheca fuliginea = assay: Sphaerotheca test (cucumber)/protective; conditions: protective, 10 days after inoculation; for % efficacy: application rate 25 g/ha; for Emax at 2.5 g/ha: application rate 2.5 g/ha
# Description: To test for protective activity, young plants are sprayed with the commercial active compound preparation at the stated application rate. After the spray coating has dried on, the plants are inoculated with an aqueous spore suspension of Sphaerotheca fuliginea. The plants then remain in a greenhouse at about 23° C. and about 70% relative atmospheric humidity.
# Evaluation is carried out 10 days after the inoculation. 0% means an efficacy corresponding to that of the control, and an efficacy of 100% means that no infection is observed.
# [1] = system: Erysiphe graminis f.sp. hordei; assay: Erysiphe test (barley)/curative; conditions: curative, 7 days after inoculation
# Description: (§1) Solvent: 25 parts by weight of N,N-dimethylacetamide
# (§2) Emulsifier: 0.6 part by weight of alkylaryl polyglycol ether
# (§3) To produce a suitable preparation of active compound, 1 part by weight of active compound or active compound combination is mixed with the stated amounts of solvent and emulsifier, and the concentrate is diluted with water to the desired concentration.
# To test for curative activity, young plants are dusted with spores of Erysiphe graminis f.sp. hordei. 48 hours after the inoculation, the plants are sprayed with the preparation of active compound at the stated application rate.
# (§4) The plants are placed in a greenhouse at a temperature of about 20° C. and a relative atmospheric humidity of about 80%, in order to promote the development of mildew pustules.
# (§5) Evaluation is carried out 7 days after the inoculation. 0% means an efficacy which corresponds to that of the control, whereas an efficacy of 100% means that no infection is observed.
# Leptosphaeria nodorum [2] = assay: Leptosphaeria nodorum test (wheat)/protective; conditions: Parastagonospora nodorum, 240 h, application rate 6.25 g/ha, protective, 10 days after inoculation, read-out: Efficacy in %
# Description: as §1, §2, §3
# (§6) To test for protective activity, young plants are sprayed with the preparation of active compound at the stated application rate. After the spray coating has dried on, the plants are sprayed with a spore suspension of Leptosphaeria nodorum. The plants remain in an incubation cabin at 20EC and 100% relative atmospheric humidity for 48 hours.
# The plants are placed in a greenhouse at a temperature of about 15° C. and a relative atmospheric humidity of 80%.
# (§7) Evaluation is carried out 10 days after the inoculation. 0% means an efficacy which corresponds to that of the control, whereas an efficacy of 100% means that no infection is observed.
# Puccinia recondita [3] = assay: Puccinia test (wheat)/protective; conditions: Puccinia recondita, 240 h, application rate 6.25 g/ha, protective, 10 days after inoculation, read-out: Efficacy in %
# Description: as §1, §2, §3
# as §6, with “conidia” for “spore”, “Puccinia recondita.” for “Leptosphaeria nodorum.”, “20° C.” for “20EC”
# The plants are then placed in a greenhouse at a temperature of about 20° C. and a relative atmospheric humidity of 80%, in order to promote the development of rust pustules.
# as §7
# Phytophthora infestans = assay: whole plant or invertebrate
# Puccinia recondita [4] = assay: Puccinia test (wheat)/curative; conditions: application rate 6.25 g/ha, curative, 10 days after inoculation
# Description: as §1, §2, §3
# (§8) To test for curative activity, young plants are sprayed with a conidia suspension of Puccinia recondita. The plants remain in an incubation cabin at 20° C. and 100% relative atmospheric humidity for 48 hours. The plants are subsequently sprayed with the preparation of active compound at the stated application rate.
# The plants are placed in a greenhouse at a temperature of about 20° C. and a relative atmospheric humidity of about 80%, in order to promote the development of rust pustules.
# as §7
# [5] = system: Erysiphe graminis fsp. tritici; assay: Erysiphe test (wheat)/protective; conditions: protective, 7 days after inoculation
# Description: as §1, §2, §3
# To test for protective activity, young plants are sprayed with the preparation of active compound at the stated application rate.
# After the spray coating has dried on, the plants are dusted with spores of Erysiphe graminis fsp. tritici.
# as §4, §5
# Leptosphaeria nodorum [6] = assay: Leptosphaeria nodorum test (wheat)/curative; conditions: curative, 10 days after inoculation
# Description: as §1, §2, §3
# as §8, with “Leptosphaeria nodorum.” for “Puccinia recondita.”, “hours and” for “hours. The plants”, “then” for “subsequently”
# The plants are placed in a greenhouse at a temperature of about 15° C. and a relative atmospheric humidity of about 80%.
# as §7
# [7] = system: Erysiphe graminis f.sp. tritici; assay: Erysiphe test (wheat)/curative; conditions: application rate 25 g/ha, curative, 7 days after inoculation
# Description: as §1, §2, §3
# To test for curative activity, young plants are dusted with spores of Erysiphe graminis f.sp. tritici. 48 hours after the inoculation, the plants are sprayed with the preparation of active compound at the stated application rate.
# as §4, §5
# Fusarium nivale = Fusarium nivale test (triticale)/seed treatment; conditions: application rate 75 mg/kg of seed, dry seed dressing, about 3 weeks after sowing
# Description: To dress the seed, the infected seed together with the seed dressing is shaken for 3 minutes in a sealed glass flask.
# About 3 weeks after sowing, the plants are evaluated for symptoms of snow mould.
# [8] = Phytophthora infestans, in Solanum lycopersicum, 72 h, read-out: % efficacy
# [9] = Podosphaera fuliginea, 240 h, read-out: % efficacy
# [10] = application rate 5 g/ha, tomato, protective, 3 days after inoculation
molecule,measurement,setting,value
propineb [(A)],% efficacy,Sphaerotheca fuliginea,45%
"Fc1ccc([C@]2(Cn3cncn3)O[C@H]2c2ccccc2Cl)cc1 (racemic) [(V), epoxiconazole]",Efficacy in %,[1]; application rate 12.5 g/ha,92%
same,pest or weed control at 6.25 g/ha,Leptosphaeria nodorum [2],50%
same,pest or weed control at 6.25 g/ha,Puccinia recondita [3],81%
"CC1(C(=O)Nc2ccc(O)c(Cl)c2Cl)CCCCC1 [(ε), 2,3-dichloro-4-(1-methylcyclohexylcarbonylamino)-phenol]",Emax at 5 g/ha,Phytophthora infestans; [8],14%
"O=C1C2CC=CCC2C(=O)N1SC(Cl)(Cl)Cl (stereo not drawn) [(θ), captan]",Emax at 12.5 g/ha,"Sphaerotheca fuliginea; Podosphaera fuliginea, 240 h, application rate 12.5 g/ha, read-out: % efficacy",0%
"Cc1ccc(N(SC(F)(Cl)Cl)S(=O)(=O)N(C)C)cc1 [(B2), tolylfluanide]",% efficacy,Sphaerotheca fuliginea,22%
"CC1(C)CCC(Cc2ccc(Cl)cc2)C1(O)Cn1cncn1 (stereo not drawn) [(W), metconazole]",Efficacy in %,Puccinia recondita [4],50%
same,Efficacy in %,[5]; application rate 6.25 g/ha,43%
same,Efficacy in %,[1]; application rate 6.25 g/ha,33%
same,pest or weed control at 6.25 g/ha,Leptosphaeria nodorum [2],50%
same,Efficacy in %,Leptosphaeria nodorum [6]; application rate 12.5 g/ha,25%
same,pest or weed control at 6.25 g/ha,Puccinia recondita [3],75%
"CC(C)(C)C(O)C(Oc1ccc(-c2ccccc2)cc1)n1cncn1 (stereo not drawn) [(C), bitertanol]",Emax at 2.5 g/ha,Sphaerotheca fuliginea; [9],20%
"N#Cc1c[nH]cc1-c1cccc2c1OC(F)(F)O2 [(Y), fludioxonil]",Efficacy in %,[7],0%
same,pest or weed control at 6.25 g/ha,Leptosphaeria nodorum [2],25%
same,pest or weed control at 6.25 g/ha,Puccinia recondita [3],13%
same,Efficacy in %,Fusarium nivale,92%
cymoxanil [(M)],% efficacy,Phytophthora infestans; in vivo,12%
"CC(C)(C)C(=O)C(Oc1ccc(Cl)cc1)n1cncn1 (stereo not drawn) [(E), triadimefon]",Emax at 2.5 g/ha,Sphaerotheca fuliginea; [9],30%
"O=C1c2ccccc2C(=O)N1SC(Cl)(Cl)Cl [(K), folpet]",Emax at 10 g/ha,Phytophthora infestans; [8],27%
CSC(=O)c1cccc2nnsc12 [(β)],% efficacy,Phytophthora infestans; [10],0%
"Cc1cc(C2CC2)nc(Nc2ccccc2)n1 [(R), cyprodinyl]",Efficacy in %,Puccinia recondita [4],33%
same,Efficacy in %,[5]; application rate 12.5 g/ha,0%
same,Emax at 5 g/ha,Phytophthora infestans; [8],0%
same,Efficacy in %,[7],17%
same,pest or weed control at 6.25 g/ha,Leptosphaeria nodorum [2],25%
same,Efficacy in %,Leptosphaeria nodorum [6]; application rate 6.25 g/ha,50%
same,pest or weed control at 6.25 g/ha,Puccinia recondita [3],13%
"CCC1(C(=O)N[C@H](C)c2ccc(Cl)cc2)C(C)C1(Cl)Cl (stereo partly drawn) [(ω), N-(R)-[1-(4-chloro-phenyl)-ethyl]-2,2-dichloro-1-ethyl-3t-methyl-1r-cyclopropane-carboxarnide]",% efficacy,Phytophthora infestans; [10],5%
